Laboratory results as given in patent US12491253B2, “Bicyclic peptide ligands specific for MT1-MMP” (BicycleRD Limited, priority 2018, dated 2025).

Molecular target: MT1-MMP hemopexin domain (Homo sapiens, UniProt P50281)
Conditions: Human MT1-MMP FP direct binding; fluoresceinated bicyclic peptide titrated with hemopexin domain; molecular scaffold TBMB
Procedure: Direct Binding Fluorescence Polarisation or Anisotropy Assays are performed by titrating a constant concentration of fluorescent tracer (here, the fluoresceinated bicyclic peptide to be studied) with its binding partner (here, the MT1-MMP hemopexin domain). As the concentration of binding partner increases during the titration, the polarisation signal changes in proportion to the fraction of bound and unbound material. This allows determination of […] (Kd) quantitatively. Assay data can be fit using standard ligand binding equations.
The titrant (binding partner) concentration is varied from 0.1 nM up to typically 5 μM. The range is chosen such that the maximum change in fluorescent polarisation can be observed. Buffers employed are phosphate buffered saline in the presence of 0.01% Tween. Experiments were run in black 384 well low-bind/low volume plates (Corning 3820), and the fluorescent polarisation signal was measured using a BMG Pherastar FS plate reader. […] Fluoresceination may be performed on the N-terminal amino group of the peptide, which is separated from the bicycle core sequence by a sarcosine spacer (usually Sar5). This can be done during Fmoc solid phase synthesis or post-synthetically (after cyclisation with TBMB and purification) if the N-terminal amino group is unique to the peptide. Fluoresceination can also be performed on the C-terminus, usually on a Lysine introduced as the first C-terminal residue, which is then separated from the bicycle core sequence by a sarcosine spacer (usually Sar6). Thus, N-terminal tracers can have a molecular format described as Fluo-Gly-Sar6-A (BicycleCoreSequence), and (BicycleCoreSequence)-A-Sar6-K(Fluo) for a C-terminally fluoresceinated construct.
Fluorescent tracers used in the Examples include BCY1323-Sar6-K(FI), BCY1326-Sar6-K(FI), BCY3418-Sar6-K(FI), BCY3422-K(FI), and BCY1329-Sar6-K(FI).

| Substance | Kd [nM] |
| --- | --- |
| fluoresceinated bicyclic peptide tracer on TBMB, used as BCY1329-Sar6-K(FI); sequence not given | 22.1 ± 11 |
| fluoresceinated bicyclic peptide tracer on TBMB, used as BCY1323-Sar6-K(FI); sequence not given | 35.9 ± 6.65 |
| fluoresceinated bicyclic peptide tracer on TBMB, used as BCY1326-Sar6-K(FI); sequence not given | 218 |
